From patent publication US9260731B2 (RELIANCE INDUSTRIES LIMITED, priority 2012, dated 2016)
Like-named read-outs stand apart in the source and are kept apart here.

Columns and labels:
[1] = test system: solvent-tolerant mutant C. acetobutylicum MTCC 5587; experiment: Rhodamine 6G accumulation on AT agar, solvent-tolerant mutant; type: cell-based, Clostridium acetobutylicum; details: 100 μg/ml in AT agar, 24 h, 37° C., anaerobic
Method: (§1) Cells of overnight culture of wild type and solvent-tolerant mutant C. acetobutylicum MTCC 5587 were spotted on AT agar with or without rhodamine 6G (100 μg/ml) and incubated at 37° C. in anaerobic chamber for 24 h. Accumulation of rhodamine 6G was monitored under UV light (Lazaroaie, 2009).

[2] = test system: wild type C. acetobutylicum; experiment: Rhodamine 6G accumulation on AT agar, wild type; type: cell-based, Clostridium acetobutylicum; details: 100 μg/ml in AT agar, 24 h, 37° C., anaerobic
Method: as §1

[3] = test system: C. acetobutylicum MTCC 5587 (mutant strain B90)
Method: Chemical mutagenesis was carried out using MNNG (1-methyl-3-nitro-1-nitrosoguanidine). Alternate thioglycolate (AT) media was inoculated with C. acetobutylicum ATCC 4259 from the stab culture. After 12 h growth at 37° C., the culture was harvested and centrifuged. The cell pellet was washed with 2 ml citrate buffer (pH 5.8) and 100 μl of MNNG (stock solution 100 mg/ml prepared in sterilized distilled water) was added to the cells, incubated at 30° C. for 70 min. The mutagenised cell mass was centrifuged and the supernatant discarded appropriately in biohazard containers. The cells were washed twice with AT broth and resuspended in 1 ml AT broth.
(§2) The tolerance and growth profile of the mutant was monitored with respect to time.

[4] = test system: C. acetobutylicum ATCC 4259 (wild type strain)
From the text: as §2

| Compound | accumulation of rhodamine 6G intracellularly (colony colour under UV light) [1] | accumulation of rhodamine 6G (colony colour under UV light) [2] | growth in presence of butanol ([3]; 3.8% butanol) | growth in presence of butanol ([3]; 4% butanol) | growth in presence of butanol ([3]; at the highest tolerated levels of butanol (up to […] v/v)) | butanol tolerated in the AT medium ([3]; mutant strain, AT medium) | butanol tolerated in the medium, beyond which there was cessation of growth [4] |
| --- | --- | --- | --- | --- | --- | --- | --- |
| CCN=c1cc2oc3cc(NCC)c(C)cc3c(-c3ccccc3C(=O)OCC)c-2cc1C.Cl [rhodamine 6G] | high accumulation | comparatively lower dye accumulation | – | – | – | – | – |
| n-butanol | – | – | no growth | no growth | extremely slow and feeble | up to 3.5 % (v/v) | up to 1.5% |
